{"source": "patent US20250352458A1", "about": "“IMPROVEMENTS IN OR RELATING TO EXTRACTS” (Givaudan SA, priority 2020, published 2025)", "key": {"[1]": {"test_system": "H. influenzae (ATCC 49766)", "assay": "MIC evaluation, optical density and percentage of inhibition", "format": "cell-based, Haemophilus influenza", "source_text": "The minimum inhibitory concentration of the following active ingredients has been assessed: • Mangifera indica extract (in propanediol/water 75/25); • Vehicule (propanediol/water 75/25, expressed as Activolo3-75%); • “Pool Mangiferin” which is the pure molecule mangiferin at the same concentration in the Mangifera indica extract in propanediol/water 75/25. • “Pool Mangifera” with is the mix of the 4 molecules (mangiferin, maclurin-C-glucoside, irifluophenone-C-glucoside, gallotanin) at the same concentration in the Mangifera indica extract in propane-diol/water 75/25.\nH. influenzae (ATCC 49766) was cultured in Mueller Hinton broth as recommended by ATCC with 5% CO2. The Bacterial concentration was adjusted in Mueller Hinton broth to obtain a solution at 1.106 CFU/ml (5.104 CFU/well) (launch of culture at D-2). […] Two day later, the inhibition of H. influenzae was evaluated using Colony counter IUL instruments, flash and go model (reading at D2).\nConcentrations are expressed in % (m/v).\nThe diluted bacterial suspension was added to columns 2 to 12. RCB medium was added to column 1 as negative control.\nOptical density was determined, which correlates to the bacterial growth. Thereafter, an inhibition value (%) was determined for each condition using the following formula: […]\nThe percentage of inhibition must be higher or equal than 90% to reach the MIC."}, "[2]": {"test_system": "Propionibacterium acnes (C. acnes) phylotype IA1 ATCC 6919", "assay": "MIC evaluation, optical density and percentage of inhibition", "format": "cell-based", "source_text": "The minimum inhibitory concentration of the following active ingredients has been assessed: • Mangifera indica extract (in propanediol/water 75/25); • Vehicule (propanediol/water 75/25, expressed as Activolo3-75%); • “Pool Mangiferin” which is the pure molecule mangiferin at the same concentration in the Mangifera indica extract in propanediol/water 75/25. • “Pool Mangifera” with is the mix of the 4 molecules (mangiferin, maclurin-C-glucoside, irifluophenone-C-glucoside, gallotanin) at the same concentration in the Mangifera indica extract in propane-diol/water 75/25. […] After two days, the bacterial concentration was adjusted in reinforced clostridial broth to obtain a solution at 1.106 CFU/ml (5.104 CFU/well). […] Concentrations are expressed in % (m/v). […] The diluted bacterial suspension was added to columns 2 to 12. RCB medium was added to column 1 as negative control. Optical density was determined, which correlates to the bacterial growth."}, "[3]": {"details": "0.39 10^−2 % (m/v), plate col. 12"}, "[4]": {"details": "0.78 10^−2 % (m/v), plate col. 11"}, "[5]": {"details": "1.56 10^−2 % (m/v), plate col. 10"}, "[6]": {"details": "3.1310^−2 % (m/v), plate col. 9"}, "[7]": {"details": "6.25 10^−2 % (m/v), plate col. 8"}, "[8]": {"details": "12.5 10^−2 % (m/v), plate col. 7"}, "[9]": {"details": "25.0 10^−2 % (m/v), plate col. 6"}}, "note": "Where “and” joins values, the source holds several entries; their conditions need not be identical. Identical values can stand only once."}
{"compound": "O=c1c2cc(O)c(O)cc2oc2cc(O)c([C@@H]3O[C@H](CO)[C@@H](O)[C@H](O)[C@H]3O)c(O)c12", "note": "[pool mangiferin]", "values": [{"measurement": "Optical density, H. influenza", "setting": "[1]; [3]", "value": "0.190 and 0.197"}, {"measurement": "Percentage of inhibition, H. influenza", "setting": "[1]; [3]", "value": "1.9% and 0%"}, {"measurement": "Optical density, H. influenza", "setting": "[1]; 0.5% (m/v), plate col. 5", "value": "0.193 and 0.191"}, {"measurement": "Percentage of inhibition, H. influenza", "setting": "[1]; 0.5% (m/v), plate col. 5", "value": "−0.3% and 1.2%"}, {"measurement": "Optical density, H. influenza", "setting": "[1]; [4]", "value": "0.188 and 0.197"}, {"measurement": "Percentage of inhibition, H. influenza", "setting": "[1]; [4]", "value": "3.4% and 0%"}, {"measurement": "Optical density, H. influenza", "setting": "[1]; 1% (m/v), plate col. 4", "value": "0.190 and 0.183"}, {"measurement": "Percentage of inhibition, H. influenza", "setting": "[1]; 1% (m/v), plate col. 4", "value": "1.9% and 7.0%"}, {"measurement": "Optical density, H. influenza", "setting": "[1]; [5]", "value": "0.185 and 0.196"}, {"measurement": "Percentage of inhibition, H. influenza", "setting": "[1]; [5]", "value": "5.5% and 0%"}, {"measurement": "antibacterial effect against H. influenza (in words)", "setting": "[1]; 2%", "value": "no antibacterial effect"}, {"measurement": "Optical density, H. influenza", "setting": "[1]; 2% (m/v), plate col. 3", "value": "0.184 and 0.181"}, {"measurement": "Percentage of inhibition, H. influenza", "setting": "[1]; 2% (m/v), plate col. 3", "value": "6.3% and 8.4%"}, {"measurement": "Optical density, H. influenza", "setting": "[1]; [6]", "value": "0.180 and 0.193"}, {"measurement": "Percentage of inhibition, H. influenza", "setting": "[1]; [6]", "value": "9.1% and 0%"}, {"measurement": "Optical density, H. influenza", "setting": "[1]; [7]", "value": "0.185 and 0.197"}, {"measurement": "Percentage of inhibition, H. influenza", "setting": "[1]; [7]", "value": "5.5% and 0%"}, {"measurement": "Optical density, H. influenza", "setting": "[1]; [8]", "value": "0.187 and 0.195"}, {"measurement": "Percentage of inhibition, H. influenza", "setting": "[1]; [8]", "value": "4.1% and 0%"}, {"measurement": "Optical density, H. influenza", "setting": "[1]; [9]", "value": "0.189 and 0.196"}, {"measurement": "Percentage of inhibition, H. influenza", "setting": "[1]; [9]", "value": "2.6% and 0%"}, {"measurement": "Optical density, C. acnes", "setting": "[2]; [3]", "value": "0.238 and 0.246"}, {"measurement": "Percentage of inhibition, C. acnes", "setting": "[2]; [3]", "value": "2.0% and 0%"}, {"measurement": "Optical density, C. acnes", "setting": "[2]; 0.5% (m/v), plate col. 5", "value": "0.242 and 0.245"}, {"measurement": "Percentage of inhibition, C. acnes", "setting": "[2]; 0.5% (m/v), plate col. 5", "value": 0, "unit": "%"}, {"measurement": "Optical density, C. acnes", "setting": "[2]; [4]", "value": "0.244 and 0.245"}, {"measurement": "Percentage of inhibition, C. acnes", "setting": "[2]; [4]", "value": 0, "unit": "%"}, {"measurement": "Optical density, C. acnes", "setting": "[2]; 1% (m/v), plate col. 4", "value": 0.241}, {"measurement": "Percentage of inhibition, C. acnes", "setting": "[2]; 1% (m/v), plate col. 4", "value": 0, "unit": "%"}, {"measurement": "Optical density, C. acnes", "setting": "[2]; [5]", "value": "0.243 and 0.242"}, {"measurement": "Percentage of inhibition, C. acnes", "setting": "[2]; [5]", "value": 0, "unit": "%"}, {"measurement": "antibacterial effect against P. acnes (in words)", "setting": "[2]; 2%", "value": "no antibacterial effect"}, {"measurement": "Optical density, C. acnes", "setting": "[2]; 2% (m/v), plate col. 3", "value": "0.236 and 0.234"}, {"measurement": "Percentage of inhibition, C. acnes", "setting": "[2]; 2% (m/v), plate col. 3", "value": "3.0% and 4.1%"}, {"measurement": "Optical density, C. acnes", "setting": "[2]; [6]", "value": 0.244}, {"measurement": "Percentage of inhibition, C. acnes", "setting": "[2]; [6]", "value": 0, "unit": "%"}, {"measurement": "Optical density, C. acnes", "setting": "[2]; [7]", "value": "0.242 and 0.245"}, {"measurement": "Percentage of inhibition, C. acnes", "setting": "[2]; [7]", "value": 0, "unit": "%"}, {"measurement": "Optical density, C. acnes", "setting": "[2]; [8]", "value": "0.245 and 0.244"}, {"measurement": "Percentage of inhibition, C. acnes", "setting": "[2]; [8]", "value": 0, "unit": "%"}, {"measurement": "Optical density, C. acnes", "setting": "[2]; [9]", "value": "0.245 and 0.243"}, {"measurement": "Percentage of inhibition, C. acnes", "setting": "[2]; [9]", "value": 0, "unit": "%"}]}
